Laboratory results from patent US20100003209A1, “Odor Blocking Water-Absorbent Compositions” (BASF SE, priority 2006, published 2010).
Read-outs that look alike come from different tables or passages of the source.

What was measured:
[1] = Centrifuge Retention Capacity (CRC), EDANA test method No. 441.2-02; assay type: physicochemical
urease (from jack beans) = urease (from jack beans) (Canavalia ensiformis, UniProt P07374); details: 23° C.
Description: The measurements should be carried out, unless otherwise stated, at an ambient temperature of 23±2° C. and a relative humidity of 50±10%. The water-absorbing polymers are thoroughly commixed prior to the measurement.
To determine the odor-preventing effect, 2 g of each of the compositions produced above were placed in a 100 ml Erlenmeyer flask and admixed with a freshly prepared solution of 30 mg of urease (from jack beans; lyophilized 5 U/mg for urea assay in serum; Merck KGaA, Germany) and 50 ml of 0.9% sodium chloride solution, the sodium chloride solution containing 8.56 g/l of urea, and sealed with a stopper having an internal diffusion tubelet (Dräger® Röhrchen; ammonia 20/a-D, 20 to 1500 ppm*h). The measurement was discontinued after 6 hours. The test was carried out at 23° C.

[2] = 0.0500% by weight in composition with polymer from Example 1 (55 mol % neutralized)
[3] = 0.2000% by weight in composition with polymer from Example 1 (55 mol % neutralized)

urease (from jack beans), sequence (P07374 whole entry, looked up): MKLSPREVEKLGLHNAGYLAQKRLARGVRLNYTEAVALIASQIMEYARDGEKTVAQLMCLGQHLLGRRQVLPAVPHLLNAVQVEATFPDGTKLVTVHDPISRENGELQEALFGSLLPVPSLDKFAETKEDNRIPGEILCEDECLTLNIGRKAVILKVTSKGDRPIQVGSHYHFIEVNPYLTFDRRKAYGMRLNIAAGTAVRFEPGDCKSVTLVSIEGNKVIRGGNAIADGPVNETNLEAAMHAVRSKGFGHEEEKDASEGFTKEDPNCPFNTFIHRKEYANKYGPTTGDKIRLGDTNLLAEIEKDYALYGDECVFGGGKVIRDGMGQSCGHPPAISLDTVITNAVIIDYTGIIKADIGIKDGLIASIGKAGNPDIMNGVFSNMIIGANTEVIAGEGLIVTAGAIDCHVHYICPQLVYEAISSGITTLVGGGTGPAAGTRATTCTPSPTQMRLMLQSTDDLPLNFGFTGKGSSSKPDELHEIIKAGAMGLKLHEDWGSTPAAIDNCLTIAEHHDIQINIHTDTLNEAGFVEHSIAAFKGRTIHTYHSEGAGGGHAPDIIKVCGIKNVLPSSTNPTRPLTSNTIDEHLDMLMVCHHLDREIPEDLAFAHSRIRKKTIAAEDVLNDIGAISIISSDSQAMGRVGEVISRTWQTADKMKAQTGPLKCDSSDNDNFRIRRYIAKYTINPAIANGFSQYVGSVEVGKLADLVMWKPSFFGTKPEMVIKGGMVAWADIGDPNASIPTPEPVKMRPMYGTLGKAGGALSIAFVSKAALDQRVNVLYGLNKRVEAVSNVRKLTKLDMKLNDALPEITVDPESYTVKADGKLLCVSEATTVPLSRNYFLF

## Oc1ccc(O)cc1 [hydroquinone]
[1]; 0.0050% by weight in composition with polymer from Example 1 (55 mol % neutralized)
  CRC: 28.5 g/g
[1]; [2]
  CRC: 28.7 g/g
[1]; [3]
  CRC: 25.3 g/g
[1]; 1.0000% by weight in composition with polymer from Example 1 (55 mol % neutralized)
  CRC: 23.4 g/g
Urease (from jack beans); 0.0025% by weight in composition, degree of neutralization 55 mol %
  NH3 after 6 hours: 91 ppm
Urease (from jack beans); 0.0025% by weight in composition, degree of neutralization 60 mol %
  NH3 after 6 hours: 182 ppm
Urease (from jack beans); 0.0025% by weight in composition, degree of neutralization 72 mol %
  NH3 after 6 hours: 800 ppm
Urease (from jack beans); 0.0050% by weight in composition, degree of neutralization 55 mol %
  NH3 after 6 hours: 58 ppm
Urease (from jack beans); 0.0050% by weight in composition, degree of neutralization 60 mol %
  NH3 after 6 hours: 78 ppm
Urease (from jack beans); 0.0050% by weight in composition, degree of neutralization 72 mol %
  NH3 after 6 hours: 381 ppm
Urease (from jack beans); 0.0100% by weight in composition, degree of neutralization 55 mol %
  NH3 after 6 hours: 29 ppm
Urease (from jack beans); 0.0100% by weight in composition, degree of neutralization 60 mol %
  NH3 after 6 hours: 45 ppm
Urease (from jack beans); 0.0100% by weight in composition, degree of neutralization 72 mol %
  NH3 after 6 hours: 214 ppm
Urease (from jack beans); 0.0200% by weight in composition, degree of neutralization 55 mol %
  NH3 after 6 hours: 0 ppm
Urease (from jack beans); 0.0200% by weight in composition, degree of neutralization 60 mol %
  NH3 after 6 hours: 10 ppm
Urease (from jack beans); 0.0200% by weight in composition, degree of neutralization 72 mol %
  NH3 after 6 hours: 63 ppm
Urease (from jack beans); 0.0500% by weight in composition, degree of neutralization 55 mol %
  NH3 after 6 hours: 0 ppm
Urease (from jack beans); 0.0500% by weight in composition, degree of neutralization 60 mol %
  NH3 after 6 hours: 0 ppm
Urease (from jack beans); 0.0500% by weight in composition, degree of neutralization 72 mol %
  NH3 after 6 hours: 15 ppm
Urease (from jack beans); 0.2000% by weight in composition, degree of neutralization 55 mol %
  NH3 after 6 hours: 0 ppm
Urease (from jack beans); 0.2000% by weight in composition, degree of neutralization 60 mol %
  NH3 after 6 hours: 0 ppm
Urease (from jack beans); 0.2000% by weight in composition, degree of neutralization 72 mol %
  NH3 after 6 hours: 0 ppm
Urease (from jack beans); 1.0000% by weight in composition, degree of neutralization 55 mol %
  NH3 after 6 hours: 0 ppm
Urease (from jack beans); 1.0000% by weight in composition, degree of neutralization 60 mol %
  NH3 after 6 hours: 0 ppm
Urease (from jack beans); 1.0000% by weight in composition, degree of neutralization 72 mol %
  NH3 after 6 hours: 0 ppm

## [F-].[Na+] [sodium fluoride]
[1]; [2]
  CRC: 29.1 g/g
[1]; 0.0900% by weight in composition with polymer from Example 1 (55 mol % neutralized)
  CRC: 28.5 g/g
[1]; [3]
  CRC: 24.1 g/g
